In a melting point compilation (Tetko et al.; mined from patent text by program, amines drawn as free bases though some values may be those of a salt):

Row | Compound | melting point [°C]
1 | COC1=CC(=O)C(OC)=C(CCCCCC2=C(OC)C(=O)C(Cl)=C(OC)C2=O)C1=O | 44.8 to 46
2 | N#Cc1cn(COC(CO)CO)c2ncnc(N)c12 | 195
3 | CC(=CC#N)NCc1ccc(Cl)nc1 | 95 to 98
4 | COc1ccc(C(=O)Nc2ccc(Cl)c(Cl)c2)cc1NC(=S)Nc1cc(Cl)cc(Cl)c1 | 189 to 191
5 | CC(C(=O)CCc1ccc(OC(F)(F)F)cc1)n1cncn1 (stereo unspecified) | 58
6 | CSc1nnc(C(N)(c2ccc(Cl)cc2)c2ccc3nc(C)cc(-c4cccc(Cl)c4)c3c2)n1C (stereo unspecified) | 128
7 | CCOC(=O)c1c(S(C)(=O)=O)nc2sccn12 | 158 to 161
8 | O=C1CCc2cc(Cl)c([N+](=O)[O-])cc21 | 110 to 113
9 | CNC(=O)[C@@H]1C[C@@H](OC)CN1S(=O)(=O)c1ccc(Cl)c(CBr)c1Cl | 64
10 | CC(C)(C)CCNC(=O)c1ccc(C#N)cc1 | 154 to 157
11 | CN1CCN(CCCN(C)C(=O)Cn2c(-c3cccc(Cl)c3)nc3cccnc32)CC1 | 114 to 117
12 | CCCCCCCCC=CCCCCCCCCCCCC(=O)Nc1ccc(Cl)cc1C(=O)O | 159 to 162
13 | COc1ccc(-c2cnn3c(N)c(-c4cccc(Cl)c4)c(CF)nc23)cc1OC | 228 to 230
14 | N#Cc1c(CNC(=O)c2ccc(-n3cccc3)cc2)nn(-c2ccc(Cl)cc2Cl)c1-c1ccc(Cl)cc1 | 121
15 | O=C(OCC(O)CO)c1cc(F)ccc1Nc1ccnc2cc(Cl)ccc12 (stereo unspecified) | 168
16 | COc1c(N2CC(C)C(N)C(C)(C)C2)c(F)cc2c(=O)c(C(=O)O)cn(C3CC3)c12 (stereo unspecified) | 218 to 220
17 | Cc1nc(Cn2cnc3c2c(=O)[nH]c(=O)n3C)no1 | 262 to 264
18 | COC(=O)C(=C(C)C)N1C(=O)C(NC(=O)COc2ccccc2)C1SN1CCCCC1 (stereo unspecified) | 65
19 | O=C(O)c1cc(Br)c(O)c(Br)n1 | 195 to 197
20 | CC1(C)OC(=O)Nc2ccc(-c3cc(C#N)cc(C#N)c3)cc21 | 288 to 289
21 | CCCCOCCOc1ccc(-c2ccc(N3CCC(C)CC3)c(C=CC(=O)O)c2)cc1 | 159 to 160
22 | CC(C)(C)OC(=O)N1CCN(c2c(F)cc(N3CC(CN=[N+]=[N-])OC3=O)cc2F)CC1 (stereo unspecified) | 115 to 117
23 | CCN(CC)C(=O)CC1CCN(Cc2cnc3c(C)c(NC(=O)c4ccc(-c5ccc(F)cc5)cc4)ccc3c2)CC1 | 158 to 160
24 | O=C(CN1CCN(c2cnccn2)CC1)N1CC=C(c2ccc(Cl)cc2)CC1 | 139 to 141
25 | COc1ccc(N2C(=O)C(=O)c3cc(OC)ccc32)cc1 | 203 to 205
26 | COC(=O)c1cc(C)c(C(OC(=O)C(C)NS(=O)(=O)c2ccc(Cl)cc2)c2cc(-n3ccnc3)ccc2C)c(C)c1 (stereo unspecified) | 126 to 128
27 | COC12c3ccc(Cl)cc3CC1SC(=CN)N2C (stereo unspecified) | 65 to 70

Row | Compound | melting point [°C]
28 | COc1ccc2c(n1)C1(CO2)C(=O)N(Cc2ccc(C(F)(F)F)o2)c2ccc(F)cc21 (stereo unspecified) | 158 to 160
29 | Cc1cc(OCc2sc(-c3ccc(C(F)(F)F)cc3)nc2C)ccc1OCC(=O)O | 174 to 176
30 | CN(C)C=C(C#N)C(=O)Nc1cc(Cl)ccc1Cl | 175 to 176
31 | N#Cc1ccc(C(=O)NNc2c(Cl)cc(C(F)(F)F)cc2Cl)cc1 | 185 to 186
32 | CC(=O)Nc1ccc2c(c1)C(=O)NC2=O | > 250
33 | Nc1ccc(C=CC=CC=CC=Cc2ccc(N)cc2)cc1 | 262 to 264
34 | CCCCc1nc2c(N)nc(C)c(C)c2n1CC(C)(C)NC(=O)c1ccccc1 | 150 to 152
35 | CCCc1c(OCc2ccc(C(=O)OCC)c(OCC)c2)ccc(C(C)=O)c1O | 92 to 94
36 | COC(=O)C(=O)c1cc(O)c(O)c(C#N)c1 | 252
37 | O=C(c1ccc(F)cc1)C1(c2ccc(F)cc2)CCN(Cc2ccccc2)CC1 | 136 to 138
38 | CC1(OCCN(Cc2ccccc2)C(=O)C(F)(F)F)C=CC=C([N+](=O)[O-])C1NC(=O)C(F)(F)F (stereo unspecified) | 90 to 92.5
39 | COC(=O)c1cnccc1NC(=O)C(C)CS (stereo unspecified) | 54 to 56
40 | OC1CSC(Oc2cncc(-c3ccc(F)c(F)c3)c2)C(O)C1O (stereo unspecified) | 198 to 203
41 | COCCOc1ccc(CCNC(=O)C=Cc2ccc(OC)cc2OC)cc1S(N)(=O)=O | 175 to 178
42 | CCOC(=O)C1(c2ccccc2)CCN(CCO)CC1 | 91.5 to 93
43 | CC(C)(C)Nc1nc(N2CCCC2)cc(N2CCNCC2)n1 | 162 to 165
44 | CC(Cc1cccc([N+](=O)[O-])c1)NC=O (stereo unspecified) | 99 to 100
45 | COc1cccc2c1nnn2C1CCCCC1 | 118 to 120
46 | OC1CCNC(Cc2ccccc2)C1 (stereo unspecified) | 114
47 | COc1ccc(C(=O)C(CCC(C)=O)c2ccc(OC)cc2)cc1 (stereo unspecified) | 62 to 65
48 | CCOc1ccc([N+](=O)[O-])c(NC)n1 | 101
49 | CN(C)S(=O)(=O)n1cc(-c2ccc(Cl)cc2Cl)nc1C1=NC(=O)C(=O)S1 | 158
50 | COC(=O)C[C@@](O)(CCc1ccc(O)cc1)C(C)C | 89 to 91
51 | CCOC(=O)c1nnc2ccc(NC3=CC(=O)CC(C)(C)C3)cc2c1O | 274
52 | CCCCCc1c(C(C)C)nc(C(C)C)c(CO)c1-c1ccc(CC)cc1 | 87 to 88
53 | CCOC(=O)CCCc1ccc(Nc2ncc3cc(-c4c(Cl)cccc4Cl)c(=O)n(C)c3n2)cc1 | 169 to 170

More lines, now with the values ahead:

Row | melting point [°C] | Compound
54 | 61 to 64 | FC(F)(F)c1cc(N2CCN(Cc3ccc4ccccc4n3)CC2)ccc1Cl
55 | 136 to 137 | CCCn1c(=O)c2nc(CC(C)c3ccccc3)[nH]c2n(CCC)c1=O (stereo unspecified)
56 | > 268 | Oc1ccc(-c2ncc3ncc(-c4cccnc4)cc3n2)cc1
57 | 160 to 161 | CCN(CC)CC1CCCCN1CCCNC(=O)N1c2ccccc2C(=O)Nc2cccnc21 (stereo unspecified)
58 | 118 to 120 | CCOC(=O)C(=O)Nc1ccc2ccccc2c1
59 | 134 to 139 | COC(=O)[C@H](Cc1ccccc1)Oc1c(C)cc(-c2c3ccccc3c(Br)c3sc(C)c(C)c23)cc1C
60 | 168 to 170 | O=C(O)c1ccc(NCCCCCCOc2ccccc2)cc1
61 | 177 to 178 | Cc1noc(-c2ccc(CN3C(=O)C4(COc5cc6c(cc54)OCCO6)c4ccccc43)cc2)n1 (stereo unspecified)
62 | 139 to 140 | CS(=O)(=O)c1ccc(-c2cc(C#N)sc2-c2ccc(F)cc2)cc1
63 | > 200 | C=CCn1c(NCc2cccnc2)nc(N2CCc3ccccc3CC2)c(C#N)c1=O
64 | 208 to 210 | COc1c(-c2ccccc2C)c(=O)[nH]c2ccccc12
65 | 205 to 209 | O=C(NCc1ccco1)c1cc2ccnc(Cl)c2[nH]1
66 | 98 to 100 | O=C(Oc1ccc(Br)cc1)c1ccccc1
67 | 99 to 101 | COc1ccc(-c2c(C=O)ccc3cc(OC)ccc23)cc1
68 | 133 to 134 | CC(=O)NCc1ccc(CCN2CCC(n3ccc4ccccc43)CC2)cc1
69 | 76 to 77 | CC1=CC(=O)C(C)(N=Nc2ccc3ccccc3c2)O1 (stereo unspecified)
70 | 144 | COc1cc(NC(C)=O)ccc1OCC(O)CN1CCN(c2ccccc2F)CC1 (stereo unspecified)
71 | 157 to 159 | NC(=S)Nc1ccccc1-c1cccc(F)c1
72 | 148 to 149 | CCOC(=O)c1cc2c(C)ccc(N(CC)S(=O)(=O)c3cccs3)c2[nH]1
73 | 45 to 46 | Fc1ccccc1-c1ccc(Br)cc1F
74 | 134 to 135 | CC1c2ccccc2-c2ccc(F)cc2N1C(=O)c1ccc(O)cc1 (stereo unspecified)
75 | 150 to 152 | Clc1ccc(N2CCN(Cc3n[nH]c4c(Cl)cccc34)CC2)nc1
76 | 81 to 83 | C#CCOc1ccc(CCNC(=O)[C@@H](O)c2ccccc2)cc1OC
77 | 91 to 93 | CC(C)Oc1ccc(Cl)c2c(=O)c3ccccc3sc12

Row | melting point [°C] | Compound
78 | 238 to 239 | Cc1ccc(NS(=O)(=O)c2ccc(N3CCNC3=O)cc2)c(C)c1
79 | 97 | N=c1sc2cc(OC(F)(F)F)ccc2n1CCS(=O)C1CCN(Cc2ccccc2)CC1 (stereo unspecified)
80 | 233 to 235 | CC1=C(C(=O)OCCOc2ccccc2)C(c2cccc(Cl)c2C)C2=C(CNCC2=O)N1 (stereo unspecified)
81 | 149 to 150 | Cc1nc(-c2cn(CCc3ccc(F)cc3)nn2)sc1C(=O)NCc1cccnc1
82 | 116 to 117 | CCC(=O)Oc1cc(OC)cc(OC)c1C(=O)C=Cc1ccccc1
83 | 280 to 281 | O=C1NC(=O)C2(CCS(=O)(=O)c3ccccc32)N1 (stereo unspecified)
84 | 163 to 165 | CC(=O)COc1cc(=O)oc2ccccc12
85 | 126 to 128 | COC(=O)C=Cc1ccc2c(c1)cc(C)n2S(=O)(=O)c1ccccc1
86 | 128 to 130 | CCCCCc1nc(O)c(-c2ccccc2)s1
87 | 86 to 88 | COC(=O)c1cnnn1C1OC(COC(=O)c2ccccc2)C(OC(=O)c2ccccc2)C1OC(=O)c1ccccc1 (stereo unspecified)
88 | 83 to 84 | O=Cc1coc(C(O)c2ccc(Br)cc2)c1 (stereo unspecified)
89 | 85 to 91 | CC(C)c1cc(-c2ccc(F)c3ccccc23)nc(NCCNS(C)(=O)=O)n1
90 | 164 to 166 | CS(=O)(=O)Nc1ccc(C(O)C2CCN(CCc3ccccc3)CC2)cc1 (stereo unspecified)
91 | 62 to 67 | O=C1Cc2ccccc2N1c1ccsc1
92 | 148 to 150 | Nc1ccccc1NC(=O)c1ccc(C(=O)Nc2cccc(Nc3nc(-c4cccnc4)cs3)c2)cn1
93 | 93 to 94 | Cc1cc(C)cc(COC(=O)[C@H](Cc2cccc3ccccc23)NC(=O)OC(C)(C)C)c1
94 | 77 to 80 | N#Cc1ccccc1OCCCCCC(=O)O
95 | 100 to 101 | CN(C)CCCc1ccc2c(c1)CCCN2C(=O)c1ccc(-c2ccccc2)cc1
96 | 175 to 177 | c1ccc(C2NCCc3c2[nH]c2ccccc32)cc1 (stereo unspecified)
97 | 193 to 195 | COc1ccccc1N1CCc2c1c1cccc(C)c1[nH]c2=O
98 | 182 to 187 | O=C1CC(O)c2ccccc21 (stereo unspecified)
99 | 122 | FC(F)(F)c1ccc(-c2cc(Oc3cccc4sccc34)ncn2)cc1
100 | 205 to 207 | CC1CCCC(C)N1Cc1ccc(COc2cccc3c2CN(C2CCC(=O)NC2=O)C3=O)cc1 (stereo unspecified)
101 | 90 | CCOCc1nc2c(N)nc3ccc(OCc4ccccc4)cc3c2n1CC(C)(C)NC(=O)C1CCCCC1
